Data reported in publication PMC2759274 (Molecular microbiology, 2009).

B1: PsrA (PA3006) of Pseudomonas aeruginosa (natural protein)
chain: MAQSETVERILDAAEQLFAEKGFAETSLRLITSKAGVNLAAVNYHFGSKKALIQAVFSRFLGPFCASLEKELDRRQAKPEAQHATLEDLLHLLVSQAMAVKPRSGNDLSIFMRLLGLAFSQSQGHLRKYLEEVYGKVFRRYMLLVNEAAPKLPPIELFWRVHFMLGAAAFSMSGIKALRAMAETDFGVNTSTEQVMHLMVPFFAAGMRAESGIDDPLLAGAQLRPRNKTPAKA
modifications: selenomethionine in place of methionine

Columns and labels:
PsrA (His6-PsrA) = PsrA (His6-PsrA) (Pseudomonas aeruginosa, UniProt Q9HZJ9); assay: EMSA, inhibition of PsrA binding to promoter DNA; settings: 100 ng PpsrA, PrpoS or PexsC DNA; 0.01% Brij-58; inhibition seen from 5 µM
crystal structure = target: the molecule itself; assay: crystal structure

Row | Molecule | complete inhibition of DNA binding (PsrA (His6-PsrA)) [µM] | binding result (crystal structure)
1 | CCCCCCCC/C=C\CCCCCCCC(=O)O [oleate] | 50 | 
2 | B1 |  | binds
